Patent publication US8138196B2, “Antifungal wallboards and building materials and methods for the production thereof” (Syngenta Crop Protection, Inc., priority 2005, dated 2012)
Several values for one entry are separate records, joined by “and”; a condition that tells them apart may be missing. Identical values can stand only once.

Legend:
Assay type in all cases: cell-based
Coniophora puteana = experiment: radial mycelial growth on fungicide amended agar; conditions: estimated from graph of % activity (radial mycelial growth relative to agar without fungicide) against concentration
Experimental: Stem cultures of Coniophora puteana were produced by propagating the fungus on a growth medium comprising yeast extract (10 g), glycerol (20 ml), magnesium sulphate (0.5 g), sodium nitrate (6.0 g), potassium chloride (0.5 g), potassium dihydrogen orthophosphate (1.5 g), agar (20 g) in distilled water (980 ml).
Fungicides were added at levels of 5000, 100, 10, 1, 0.1 and 0.01 mg fungicide/litre of growth medium (described above) to give […] different growth medium compositions for each fungicide. Mycelial plugs were taken from the stem cultures and transferred upside down onto petri dishes containing the fungicide amended agar.
The radial mycelial growth of the fungus was measured individually on all test petri dishes. The results are expressed as % activity relative to the radial growth on agar without fungicide.
For each fungicide, a graph was drawn of percentage activity against concentration of fungicide in the growth medium. From this graph, the concentrations of fungicide required to achieve 80% activity was estimated. These figures are given in the results table.

[1] = system: Stachybotrys chartarum (DSM 2144); experiment: Example 4 liquid culture assay on 24 and 48 well plates, 3 way mixtures; conditions: test 015-2005, S. chartarum
Experimental: (§1) […] Spore suspensions were produced for each fungus. Spore concentrations of approx. 100,000 spores/ml were used.
(§2) Test method used: liquid culture assay on 24 and 48 well plates respectively.
(§3) For testing of the 3 way mixtures each of the formulated fungicide (100 ul) was filled into the 24 and 48 well plates respectively. Afterwards 700 ul of 0.3% AE media was added to the plate. The spore suspension of the specific fungi was added to this media in advance containing approx. 100,000 spores/ml. For testing the solo compounds the equivalent of distilled water was added instead of the formulated fungicide volume of the mixing partners. The plates were then sealed and incubated at 24° C.
(§4) Dependent on the growth properties of each organisms, the evaluation was done after 3 to 6 days, when the surface of the check well was covered with mycelium. The evaluation was performed by assessing the growth of the fungi related to the check growth. The results are expressed as % activity relative to the check (values of 0-100% growth). Afterwards the results were converted in % growth inhibition.
(§5) For the mixtures of different fungicides the synergism was calculated based on the Colby equation, which is described above.

[2] = system: Alternaria tenuissima (DSM 63360); experiment: as above; conditions: A. tenuissima
Text: (§6) For test 006-2005: Alternaria tenuissima (DSM 63360), Penicillium chrysogenum (DSM 895), Cladosporium cladosporoides (DSM62121), Aspergillus niger (DSM 63263), Aspergillus versicolor (DSM 1943) and Aureobasidium pullulans (ATCC 15233) were separately cultivated on PDA media to […] sporulation. Spore suspensions were produced for each fungus. Spore concentrations of approx. 100,000 spores/ml were used.
as §1, §2, §3, §4, §5

[3] = system: Alternaria tenuissima (DSM 63360); experiment: Example 3 liquid culture assay on 24 well plates, solo and 2-way mixtures; conditions: test 015-2005
Text: (§7) Alternaria tenuissima (DSM 63360), Penicillium chrysogenum (DSM 895), Stachybotrys chartarum (DSM2144), Aspergillus niger (DSM 63263), Aspergillus versicolor (DSM 1943) and Aureobasidium pullulans (ATCC 15233) were separately cultivated on PDA media to […] sporulation. Spore suspensions were produced for each fungi. Spore concentrations of approx. 100.000 spores/ml were used.
(§8) Test method used: liquid culture assay on 24 well plates.
(§9) For solo (i.e. single) ai testing the formulated fungicide (100 ul) was filled into the 24 well plates and 100 ul distilled water was added. Afterwards 800 ul of 0.3% AE media was added to the plate. The spore suspension of the specific fungi was added to this media in advance containing approx. 100,000 spores/ml. The 24 well plates were sealed and incubated at 24° C.
(§10) Dependent on the growth properties of each organisms, the evaluation was done after 3 to 6 days, when the surface of the check well was covered with mycelium. The evaluation was performed by assessing the growth of the fungi related to the check growth. The results are expressed as % activity relative to the check (values of 0-100% growth). Afterwards the results were converted in % O growth inhibition.
(§11) For synergism testing of the 2-way mixtures 100 ul of each fungicide were filled into 24 well plates and 800 ul of 0.3% AE media containing the spore suspension was added. Different ratios of the 2 fungicide rates were tested at the same time.
(§12) For the mixtures of different fungicides the synergism was calculated based on the Colby equation, which is described below: […]
(§13) The fungicidal action to be expected, We, for a given combination of two fungicides can be calculated as follows (see COLBY, S. R. “Calculating synergistic and antagonistic response of herbicide combinations”. Weeds 15, pages 20-22; 1967): We=X+[Y×(100−X)/100] wherein: • X=% activity in the case of treatment with the compound of formula I at rate x, in comparison with untreated control (=0%). • Y=% activity in the case of treatment with a compound of formula II at rate y, in comparison with untreated control. • We=expected activity (% activity in comparison with untreated control) after treatment with the compound of formula I and a compound of formula II at a rate of x+y kg of active ingredient.
(§14) If the activity actually observed is greater than the expected value We (factor observed activity/expected activity >1.2), there is a synergistic effect.

[4] = system: Aspergillus niger (DSM 63263); experiment: Example 4 liquid culture assay on 24 and 48 well plates, 3 way mixtures; conditions: A. niger
Text: as §6
For test 015-2006: Alternaria tenuissima (DSM 63360), Penicillium pinophilum (CBS342.61), Gliocladium virens (DSM1963), Aspergillus niger (DSM 63263), Stachybotrys chartarum (DSM 2144) and Aureobasidium pullulans (ATCC 15233) were separately cultivated on PDA media to […] sporulation. Spore suspensions were produced for each fungus. Spore concentrations of approx. 100,000 spores/ml were used.
as §2, §3, §4, §5

[5] = system: Aspergillus versicolor (DSM 1943); experiment: as above; conditions: test 006-2005, A. versicolor
Text: as §6, §2, §3, §4, §5

[6] = system: Aureobasidium pullulans (ATCC 15233); experiment: Example 3 liquid culture assay on 24 well plates, solo and 2-way mixtures
Text: as §7, §8, §9, §10, §11, §12, §13, §14

[7] = system: Stachybotrys chartarum (DSM2144); experiment: as above; conditions: test 006-2005
Text: as §7, §8, §9, §10, §11, §12, §13, §14

## c1ccc2[nH]c(-c3cscn3)nc2c1 [Thiabendazole]
Coniophora puteana
  Concentration required for 80% Activity: >5000 mg/L
[1]; TBZ 3.1 mg ai/l, listed as TBZ
  inh % (TBZ alone): 0% and 10%
[1]; TBZ 6.25 mg ai/l
  inh % (TBZ alone): 10%
[1]; TBZ 25 mg ai/l
  inh % (TBZ alone): 30%
[2]; test 006-2005, TBZ 0.2 mg ai/l
  inh % (TBZ alone): 0%
[2]; test 006-2005, TBZ 0.8 mg ai/l
  inh % (TBZ alone): 0%
[2]; test 006-2005, TBZ 1.6 mg ai/l
  inh % (TBZ alone): 0%
[2]; test 015-2005, TBZ 0.2 mg ai/l
  inh % (TBZ alone): 0%
[2]; test 015-2005, TBZ 1.6 mg ai/l
  inh % (TBZ alone): 0%
[2]; test 015-2005, TBZ 3.1 mg ai/l
  inh % (TBZ alone): 0%
[2]; test 015-2005, TBZ 6.25 mg ai/l
  inh % (TBZ alone): 0%
[2]; test 015-2005, TBZ 25 mg ai/l
  inh % (TBZ alone): 0%
[2]; test 015-2005, TBZ 100 mg ai/l
  inh % (TBZ alone): 0%
[3]; rate (TBZ) 12.5 mg ai/l
  inh % (TBZ alone): 0%
[3]; rate (TBZ) 25 mg ai/l
  inh % (TBZ alone): 0%
[3]; rate (TBZ) 50 mg ai/l
  inh % (TBZ alone): 0%
[3]; rate (TBZ) 100 mg ai/l
  inh % (TBZ alone): 0%
[3]; rate (TBZ) 200 mg ai/l
  inh % (TBZ alone): 0%
[4]; test 006-2005, TBZ 0.8 mg ai/l
  inh % (TBZ alone): 0%
[4]; test 015-2005, TBZ 0.2 mg ai/l
  inh % (TBZ alone): 0%
[4]; test 015-2005, TBZ 0.8 mg ai/l
  inh % (TBZ alone): 0%
[5]; TBZ 0.2 mg ai/l
  inh % (TBZ alone): 0%
[5]; TBZ 0.8 mg ai/l
  inh % (TBZ alone): 0%
[5]; TBZ 1.6 mg ai/l
  inh % (TBZ alone): 10%

## CCCC1COC(Cn2cncn2)(c2ccc(Cl)cc2Cl)O1 (stereo not shown) [Propiconazole]
Coniophora puteana
  Concentration required for 80% Activity: 1.8 mg/L
[6]; test 006-2005, rate (PPZ) 1.6 mg ai/l
  inh % (PPZ alone): 70%
[6]; test 006-2005, rate (PPZ) 3.12 mg ai/l
  inh % (PPZ alone): 70%
[6]; test 006-2005, rate (PPZ) 12.5 mg ai/l
  inh % (PPZ alone): 70%
[6]; test 015-2005, rate (PPZ) 25 mg ai/l
  inh % (PPZ alone): 50%
[6]; test 015-2005, rate (PPZ) 50 mg ai/l
  inh % (PPZ alone): 70%
[7]; rate (PPZ) 0.8 mg ai/l
  inh % (PPZ alone): 0%
[7]; rate (PPZ) 1.6 mg ai/l
  inh % (PPZ alone): 10%
[7]; rate (PPZ) 3.12 mg ai/l
  inh % (PPZ alone): 10%

## CC1COC(Cn2cncn2)(c2ccc(Oc3ccc(Cl)cc3)cc2Cl)O1 (stereo not shown) [Difenoconazole]
[6]; test 006-2005, rate (DFZ) 3.12 mg ai/l
  inh % (DFZ alone): 70%
